Series [1] in a line: Ultraviolet spectroscopy in ethanol solutions. It counts as physicochemical. The settings on record: ethanol solution; for E1.1 (λmax): extinction at 1 cm path length and 1% concentration; for ‹E1.1mean›: mean specific extinction 290 to 400 nm. Here is the method:
Spectra with a scan range of 250–400 nm were recorded in 30 µM ethanol solutions, in 1 cm path length, with 1.5 mL quartz cuvettes on a U-2800 double-beam spectrophotometer (Hitachi, Tokyo, Japan) controlled using UV Solution version 2.2 software. The molar extinction coefficient at maximum absorption (εmax) of the tested compounds was determined in ethanol as the slope of the linear regression of absorbance vs. the concentration of the tested compound (from 10 to 50 µM). The E1,1 coefficient was calculated using the formula: E1,1=ε[L/mol cm]× 10[g/L]/Mg/mol] × 1[cm] where ‹E1,1›mean value is a mean value of the specific extinction over the spectral range from 290 to 400 nm.

Series [2] has as its system HDF cells. More on the design: method as in PMID 31282672. The note with it: cited from earlier work.
For series [3], the system named is fibroblasts. Also on record: method as in PMID 28095330. The note with it: previous study; cited from earlier work.
Series [4] in a line: skin-PAMPA permeability assay. It counts as in vitro ADME. The note with it: for Papp at 2 µg/mL: concentration 2 µg/mL; for Papp at 4 µg/mL: concentration 4 µg/mL. On the procedure: The skin-PAMPA (parallel artificial membrane permeability assay) method was used, as described previously, to determine the permeability of the tested usnic acid enantiomers. The model consists of a two-chamber PAMPA sandwich, with 96 wells each. Before the experiment, the top plate, with the lipid-impregnated skin-mimetic membrane, was hydrated overnight with the hydration solution (200 µL per well). The tested substances were added at concentrations of 2 and 4 µg/mL. Each experiment was repeated at least three times, using six replicates on each plate, and the results were presented as mean ± SD. The amount of permeated active compounds was determined by spectroscopic analysis (Multiskan GO microplate reader, Thermo Scientific MaxQ 4450, Waltham, MA, USA), with a wavelength of 290 nm. For the calibration curve, stock solutions in the range of 12.5–150 µg/mL were prepared.
The apparent permeability coefficients (Papp) were calculated using the following equation:(1) Papp=−ln(1−CA/Cequilibrium)/S×(1/VD+1/VA)×t where VD = donor volume, VA = acceptor volume, Cequilibrium = equilibrium concentration, Cequilibrium=CD×VD+CA×VA/VD+VA , CD = donor concentration, CA = acceptor concentration, S = membrane area, and t = incubation time (in seconds). Compounds with Papp < 1 × 10^−6 cm/s are classified as having low permeability, and those with Papp > 1 × 10^−6 cm/s as highly permeable compounds.

In series [5] the test system is HaCaT human skin keratinocytes. Put plainly: LDH viability test, HaCaT keratinocytes. It counts as cell-based. Here is the method: (§1) Normal human skin keratinocytes (HaCaT), melanocytes (HEM), and fibroblasts (HDF) were grown at 37 °C in a 5% CO2 atmosphere, with relative humidity, on high-glucose DMEM (HaCaT, HDF), or melanocyte growth medium (HEM), supplemented with 10% fetal bovine serum (FBS) and antibiotics. Before the experiment, cells were seeded onto 96-well plates (1.5 × 10^4 cells/well) for 24 h. Then, the culture medium was replaced with the same medium, containing 2–100 µg/mL of the tested substances, and incubated for 24, 48, or 72 h. LDH release was measured as described previously. Briefly, a proper quantity of a reagent mixture was added to the cell supernatants, and after 30 min the absorbance was measured at 490 nm (the reference wavelength 600 nm) with a BioTek Synergy microplate reader (BioTek Instruments Inc., Winooski, VT, USA). Cytotoxicity was calculated as follows: ((Asample − Acontrol)/(Ama − Acontrol)) × 100; where Asample = the absorbance value for the cells incubated with the tested substances., Acontrol = the absorbance value for untreated, control cells (spontaneous LDH release), and Amax = the absorbance value in Triton-X100-lysed cells (maximum LDH release).
(§2) Each experiment was performed in triplicate, and the results were presented as mean ± SD.

In series [6] the test system is Human epidermal melanocytes (HEM). Put plainly: LDH viability test, HEM melanocytes. It counts as cell-based. The note with it: Melanocyte, HEM melanocytes (remaining cell lines). On the procedure:
as §1, §2

The test system of series [7] is dermal fibroblasts (HDF). Description: LDH viability test, HDF fibroblasts. It counts as cell-based. The settings on record: Homo sapiens, Fibroblast, HDF fibroblasts (remaining cell lines). Here is the method:
as §1, §2

Series [8] has as its system HaCaT cells. The settings on record: cited from earlier work.
The subject of series [9] is irradiated guinea pigs. Also on record: method as in earlier work. The settings on record: cited from earlier work.
In series [10] the test system is HEM cells. Also on record: method as in PMID 32092663. The note with it: cited from earlier work.
Series [11] has as its system human volunteers. Also on record: method as in PMID 12468208. The settings on record: versus reference Nivea sun spray (SPF 5); cited from earlier work.
Details of series [12]: method as in doi:10.1016/S1010-6030(98)00368-2. The settings on record: three-week exposure, 12 h/day natural sunlight + 12 h/day incubator with light source; cited from earlier work.
Details of series [13]: method as in PMID 28704942. The settings on record: different test for the evaluation; cited from earlier work.
Details of series [14]: method as in PMID 24238180. The settings on record: cited from earlier work.

Data on five molecules can be found in paper PMC8433837, “(+)-Usnic Acid as a Promising Candidate for a Safe and Stable Topical Photoprotective Agent” (Molecules, 2021).

Where two headings read alike, the source gives them in different places.

Regarding `CCCCC(CC)COC(=O)C(C#N)=C(c1ccccc1)c1ccccc1` (centres unmarked) [octocrylene, 2-ethylhexyl 2-cyano-3,3-diphenylacrylate, reference compound], in series [1], the εmax was 13 650 M^−1 cm^−1, the λmax is given as 302 nm, the “E1.1 (λmax)” value was found to be 378 and the “‹E1.1mean›” value turned out to be 141.
Take `CC(=O)C1=C(O)C=C2Oc3c(C(C)=O)c(O)c(C)c(O)c3[C@@]2(C)C1=O` [(+)-usnic acid]: in series [1], the εmax is on record as 21 120 M^−1 cm^−1, the λmax was found to be 281 nm, the “E1.1 (λmax)” value is listed as 613 and the “‹E1.1mean›” value came out at 76. Further, in series [2] (conversion of > 10 µM), the half-maximal inhibitory concentration (IC50) entry is listed as “about 3.5 µg/mL”. Also, the IC50 in series [2] (read-out: IC50) is more than 10 µM. For the same molecule, the IC50 in [3] is on record as more than 40 µg/mL. Further, in series [4], the Papp at 2 µg/mL was 7.53 ± 1.25 ×10⁻⁶ cm/s and the Papp at 4 µg/mL was determined as 7.9 ± 0.65 ×10⁻⁶ cm/s.
As for `CC(=O)C1=C(O)C=C2Oc3c(C(C)=O)c(O)c(C)c(O)c3[C@]2(C)C1=O` [(−)-usnic acid], the IC50 in series [5] (48 h) is 80.8 µg/mL; in [5] (72 h) it was 70.1 µg/mL; in series [6] it was more than 100 µg/mL; in series [7], more than 100 µg/mL. The molecule also registered a Papp at 2 µg/mL in [4] of 7.46 ± 1.12 ×10⁻⁶ cm/s. The molecule also registered a Papp at 4 µg/mL in series [4] of 8.28 ± 1.33 ×10⁻⁶ cm/s.
In the case of `CC(=O)c1c(O)c(C)c(O)c2c1OC1=CC(=O)C(C(C)=O)C(=O)C12C` (centres unmarked) [usnic acid, 2,6-diacetyl-7,9-dihydroxy-8,9b-dimethyl-1,3(2H,9bH)-dibenzofurandione], the IC50 entry in [8] (conversion of the µM value) is “about 64 µg/mL”; in series [8] (read-out: IC50), 186 ± 4.8 µM; in series [10] (conversion of the µM value) it was “about 2.4 µg/mL”; in series [10] (read-out: IC50), 6.9 µM. Moreover, the “SPF as compared to the reference (homosalate)” value in series [9] is “two times higher”. For the same molecule, the “effectiveness in sun protection” value in series [11] is “comparable to a reference Nivea sun spray”. Further, the “stability of methanol solution exposed to light” value in [12] is reported as “wholly degraded”. In addition, in series [13], the “PF UVA” value is on record as 1.8. In series [13], the SPF is 3.9.
Regarding dimethicodiethylbenzalmalonate, the “E1,1 value” in [14] was ~ 150.
